Source: patent publication US20090149455A1, “Use of Triazolopyrimidines for Controlling Plant Diseases on Legumes” (Bayer CropScience AG, priority 2005, published 2009)

Experiment: log p
Type: physicochemical
Conditions: not given

| log p | Structure (SMILES) |
| --- | --- |
| 3.05 | CC(C)(C)Nc1c(-c2c(F)cc(F)cc2F)c(Cl)nc2ncnn12 [Example 154] |
| 2.07 | Fc1cccc(F)c1-c1c(Cl)nc2ncnn2c1N1CCCO1 [Example 157] |
| 3.68 | CC1CCN(c2c(-c3c(F)cccc3Cl)c(Cl)nc3ncnn23)CC1 [Example 158] |
| 3.41 | Fc1cc(F)c(-c2c(Cl)nc3ncnn3c2N2CCC(C(F)(F)F)CC2)c(F)c1 [Example 160] |
| 2.8 | Cc1cc(C)c(-c2c(Cl)nc3ncnn3c2N2CCOCC2)c(C)c1 [Example 161] |
| 3.23 | Fc1ccccc1-c1c(Cl)nc2ncnn2c1N1CCC(C(F)(F)F)CC1 [Example 166] |
| 3.53 | Fc1cc(F)c(-c2c(Cl)nc3ncnn3c2N2CCCCC2)c(F)c1 [Example 173] |
| 1.68 | CN1CCN(c2c(-c3c(F)cc(C(F)(F)F)cc3Cl)c(Cl)nc3ncnn23)CC1 [Example 174] |
| 3.07 | Fc1cc(C(F)(F)F)cc(Cl)c1-c1c(Cl)nc2ncnn2c1N1CCOCC1 [Example 175] |
| 3.5 | Fc1cc(C(F)(F)F)cc(Cl)c1-c1c(Cl)nc2ncnn2c1N1CCCC1 [Example 176] |
| 4.03 | Fc1cc(C(F)(F)F)cc(Cl)c1-c1c(Cl)nc2ncnn2c1N1CCCCC1 [Example 177] |
| 4.18 | Fc1cc(C(F)(F)F)cc(Cl)c1-c1c(Cl)nc2ncnn2c1N1CCC(C(F)(F)F)CC1 [Example 178] |
| 3.85 | Fc1cc(C(F)(F)F)cc(Cl)c1-c1c(Cl)nc2ncnn2c1N1CC=CCC1 [Example 179] |
| 4.79 | CC1CC(C)CN(c2c(-c3c(F)cc(C(F)(F)F)cc3Cl)c(Cl)nc3ncnn23)C1 (stereo not drawn) [Example 180] |
| 4.46 | CC1CCCN(c2c(-c3c(F)cc(C(F)(F)F)cc3Cl)c(Cl)nc3ncnn23)C1 (stereo not drawn) [Example 181] |
| 4.37 | CC1CCN(c2c(-c3c(F)cc(C(F)(F)F)cc3Cl)c(Cl)nc3ncnn23)CC1 [Example 182] |
| 4.23 | CC1=CCCN(c2c(-c3c(F)cc(C(F)(F)F)cc3Cl)c(Cl)nc3ncnn23)C1 [Example 183] |
| 2.99 | CC1CCCN1c1c(-c2ccc(F)cc2F)c(Cl)nc2ncnn12 (stereo not drawn) [Example 184] |

| log p | Structure (SMILES) |
| --- | --- |
| 2.62 | Fc1ccc(-c2c(Cl)nc3ncnn3c2N2CCCC2)c(F)c1 [Example 185] |
| 2.94 | Fc1ccc(-c2c(Cl)nc3ncnn3c2N2CC=CCC2)c(F)c1 [Example 186] |
| 3.44 | CC1CCCCN1c1c(-c2ccc(F)cc2F)c(Cl)nc2ncnn12 (stereo not drawn) [Example 188] |
| 3.52 | CC1CCCN(c2c(-c3ccc(F)cc3F)c(Cl)nc3ncnn23)C1 (stereo not drawn) [Example 189] |
| 3.54 | CC1CCN(c2c(-c3ccc(F)cc3F)c(Cl)nc3ncnn23)CC1 [Example 190] |
| 3.8 | CC1(C)CCN(c2c(-c3ccc(F)cc3F)c(Cl)nc3ncnn23)CC1 [Example 191] |
| 3.3 | CC1=CCCN(c2c(-c3ccc(F)cc3F)c(Cl)nc3ncnn23)C1 [Example 192] |
| 3.34 | Fc1ccc(-c2c(Cl)nc3ncnn3c2N2CCC(C(F)(F)F)CC2)c(F)c1 [Example 193] |
| 3.14 | Fc1ccc(-c2c(Cl)nc3ncnn3c2N2CCCCC2)c(F)c1 [Example 194] |
| 2.19 | Fc1ccc(-c2c(Cl)nc3ncnn3c2N2CCOCC2)c(F)c1 [Example 195] |
| 2.8 | Fc1ccc(-c2c(Cl)nc3ncnn3c2N2CCSCC2)c(F)c1 [Example 196] |
| 1.43 | CN1CCN(c2c(-c3c(F)c(F)c(F)c(F)c3F)c(Cl)nc3ncnn23)CC1 [Example 197] |
| 3.61 | Fc1c(F)c(F)c(-c2c(Cl)nc3ncnn3c2N2CCCCC2)c(F)c1F [Example 198] |
| 2.69 | Fc1c(F)c(F)c(-c2c(Cl)nc3ncnn3c2N2CCOCC2)c(F)c1F [Example 199] |
| 2.92 | Fc1cc(F)c(-c2c(Cl)nc3ncnn3c2N2CCCCO2)c(F)c1 [Example 201] |
| 3.11 | Fc1cccc(F)c1-c1c(Cl)nc2ncnn2c1N1CCCCC1C(F)(F)F (stereo not drawn) [Example 202] |
| 2.4 | Fc1cc(F)c(-c2c(Cl)nc3ncnn3c2N2CCCO2)c(F)c1 [Example 203] |

Further lines, the compound ahead of its results:

| Structure (SMILES) | log p |
| --- | --- |
| C=C(C)CN(CC)c1c(-c2ccccc2Cl)c(Cl)nc2ncnn12 [Example 105] | 3.69 |
| C=C(C)CN(CC)c1c(-c2ccccc2)c(Cl)nc2ncnn12 [Example 106] | 3.44 |
| CC(C)(C)CNc1c(-c2ccccc2)c(Cl)nc2ncnn12 [Example 109] | 3.17 |
| Fc1c(F)c(F)c(-c2c(Cl)nc3ncnn3c2NCC(F)(F)F)c(F)c1F [Example 113] | 3 |
| CC(C)CNc1c(-c2ccccc2Cl)c(Cl)nc2ncnn12 [Example 126] | 2.97 |
| CC(C)CNc1c(-c2ccccc2)c(Cl)nc2ncnn12 [Example 127] | 2.79 |
| CC(C)Nc1c(-c2ccccc2Cl)c(Cl)nc2ncnn12 [Example 131] | 2.65 |
| CC(C)Nc1c(-c2ccc(F)c(Cl)c2)c(Cl)nc2ncnn12 [Example 140] | 2.9 |
| CC(C)Nc1c(-c2ccccc2F)c(Cl)nc2ncnn12 [Example 141] | 2.42 |
| CC(C)Nc1c(-c2ccc(F)cc2Cl)c(Cl)nc2ncnn12 [Example 142] | 2.79 |
| CC(C)Nc1c(-c2c(F)c(F)c(F)c(F)c2F)c(Cl)nc2ncnn12 [Example 144] | 3.05 |
| CC(C)Nc1c(-c2ccc(F)cc2F)c(Cl)nc2ncnn12 [Example 145] | 2.56 |
| CC(C)Nc1c(-c2ccccc2)c(Cl)nc2ncnn12 [Example 147] | 2.45 |
| CCCCNc1c(-c2ccc(F)cc2F)c(Cl)nc2ncnn12 [Example 149] | 2.9 |
| CCCNc1c(-c2ccccc2F)c(Cl)nc2ncnn12 [Example 150] | 2.43 |
| CCCNc1c(-c2c(F)c(F)c(F)c(F)c2F)c(Cl)nc2ncnn12 [Example 152] | 3.05 |
| CC(C)(C)Nc1c(-c2c(F)cc(C(F)(F)F)cc2Cl)c(Cl)nc2ncnn12 [Example 153] | 3.9 |
| CN(C)c1c(-c2c(F)c(F)c(F)c(F)c2F)c(Cl)nc2ncnn12 [Example 155] | 2.74 |
| CC1CN(c2c(-c3ccccc3F)c(Cl)nc3ncnn23)CC(C)O1 (stereo not drawn) [Example 162] | 2.67 |
| Fc1ccccc1-c1c(Cl)nc2ncnn2c1N1CCCC1 [Example 163] | 2.49 |
| Fc1ccccc1-c1c(Cl)nc2ncnn2c1N1CCCCC1 [Example 164] | 3.01 |
| Fc1ccccc1-c1c(Cl)nc2ncnn2c1N1CCSCC1 [Example 165] | 2.68 |
| CC1CC(C)CN(c2c(-c3ccc(F)cc3F)c(Cl)nc3ncnn23)C1 (stereo not drawn) [Example 187] | 3.9 |
| Fc1ccccc1-c1c(Cl)nc2ncnn2c1N1CCOCC1 [Example 200] | 2.09 |
| Fc1ccc(-c2c(Cl)nc3ncnn3c2N2CCCCO2)c(Cl)c1 [Example 204] | 3.11 |
| Fc1ccc(-c2c(Cl)nc3ncnn3c2N2CCCCO2)c(F)c1 [Example 205] | 2.84 |
| CC1CN(c2c(-c3c(F)c(F)c(F)c(F)c3F)c(Cl)nc3ncnn23)CC(C)O1 (stereo not drawn) [Example 206] | 3.33 |

Same assay, conditions: read-out: log p

| Structure (SMILES) | log p |
| --- | --- |
| CC1CCN(c2c(-c3c(F)cc(F)cc3F)c(Cl)nc3ncnn23)CC1 [Example 156, 5-Chloro-7-(4-methylpiperidin-1-yl)-6-(2,4,6-trifluorophenyl)[1,2,4]triazolo[1,5-a]-pyrimidine] | 3.6 |
